From patent publication US20240409519A1, “HYDROGENATED QUINOXALINES” (OTSUKA PHARMACEUTICAL CO., LTD., priority 2021, published 2024)

Key:
CYP2D6 = target: T1, CYP2D6 (Homo sapiens, UniProt P10635); assay: CYP inhibition test (1): inhibition rate (%) at one concentration, CYP2D6; type: in vitro ADME; details: human liver microsomes, pH 7.4, probe bufuralol (0.01 mmol/L); test compound 0.01 mmol/L, human liver microsome 0.1 mg/mL, substrate bufuralol, 37° C. 10 minutes; read-out: inhibition rate (%) 2D6
T1 construct: a human liver microsome solution containing three CYP-specific substrates; from tissue; host or cells: human liver microsomes
Protocol: (§1) A metabolic reaction was initiated by adding and mixing a test compound solution (final concentration 0.01 mmol/L) and a NADH/NADPH solution (final concentration 1 mmol/L) to a human liver microsome solution containing three CYP-specific substrates (final concentration 100 mmol/L potassium phosphate buffer solution (pH 7.4), 5 mmol/L magnesium chloride, 0.1 mg/mL human liver microsome, 0.005 mmol/L diclofenac (for CYP2C9), 0.01 mmol/L bufuralol (for […]), 0.005 mmol/L midazolam (for CYP3A4)). As an internal standard solution, a solution of each of stable isotopes of the metabolites (50 ng/mL [13C6] hydroxy diclofenac, 5 ng/mL [2H9] hydroxy bufuralol, and 5 ng/mL [13C6] hydroxy midazolam (all stable isotopes)) in methanol was prepared and used as a quenching solution.
(§2) Specifically, a metabolic reaction was initiated by adding and mixing 2 μL of a solution of a test compound in acetonitrile (or acetonitrile as a control) to 178 μL of a human liver microsome solution in ice water, followed by preincubation at 37° C. for 1 minute, and then adding 20 μL of a NADH/NADPH solution thereto. After incubation at 37° C. for 10 minutes, 50 μL of the reaction mixture was taken, and then it was added and mixed to 500 μL of a quenching solution to quech the reaction. The mixture was centrifuged (6130 g, 4° C., 10 minutes) and the supernatant was used as a sample for LC-MS/MS.
(§3) Peak area ratio ([peak area of metabolite]/[peak area of corresponding stable isotope]) was calculated for a metabolite and a stable isotope of the metabolite as measurement object. By comparing the peak area ratio of each test compound solution with that of the control, the inhibition rate (%) of each CYP species for each test compound was calculated from (1-[peak area ratio of each test compound solution]/[peak area ratio of control])×100.

serotonin (5-HT) uptake = target: T2, serotonin (5-HT) uptake (Rattus norvegicus, UniProt P31652); assay: Serotonin (5-HT) uptake inhibitory activity in rat brain synaptosome; type: biochemical; details: rat frontal cortex synaptosome, tritium-labeled 5-HT 8 nM; read-out: IC50 (nM), serotonin (5-HT) uptake inhibition
T2 construct: used as crude synaptosomal fraction; from tissue; host or cells: rat frontal cortex, crude synaptosomal fraction
Protocol: Male Wistar rats were decapitated, each brain was removed, and the frontal cortex was cut out. […] The homogenate was centrifuged at 1000 g at 4° C. for 10 minutes, and the supernatant was further centrifuged at 20000 g at 4° C. for 20 minutes. The pellet was suspended in an incubation buffer (20 mM Hepes buffer (pH 7.4) containing 10 mM glucose, 145 mM sodium chloride, 4.5 mM potassium chloride, 1.2 mM magnesium chloride and 1.5 mM calcium chloride) and used as crude synaptosomal fraction.
Each well of a 96-well round-bottom plate was used for the uptake reaction in a total volume of 200 μL solution containing purgurin (final concentration 10 μM) and ascorbic acid (final concentration 0.2 mg/mL). In other words, solvent, unlabeled 5-HT or step-diluted test compound was added to each well, and one-tenth of the final volume of the synaptosomal fraction was added to each well, followed by pre-incubation at 37° C. for 10 minutes, and then tritium-labeled 5-HT solution (final concentration 8 nM) was added and the uptake reaction was initiated at 37° C. After 10 minutes, the uptake reaction was terminated by suction filtration onto a 96-well glass fiber filter plate. The filters were rinsed with cold physi-ological saline solution, dried thoroughly, and micro scintillation 0 (Perkin-Elmer) was added thereto. Then, the residual radioactivity on the filters was measured.
The uptake value when only solvent was added was set as 100%, the uptake value when unlabeled 5-HT (final concentration 10 μM) was added as 0% (nonspecific uptake value), and the 50% inhibitory concentration was calculated from the concentration of the test compound and its inhibitory activity.

CYP2C9 = target: T3, CYP2C9 (Homo sapiens, UniProt P11712); assay: CYP inhibition test (1): inhibition rate (%) at one concentration, CYP2C9; type: in vitro ADME; details: human liver microsomes, pH 7.4, probe diclofenac (0.005 mmol/L); test compound 0.01 mmol/L, human liver microsome 0.1 mg/mL, substrate diclofenac, 37° C. 10 minutes; read-out: inhibition rate (%) 2C9
T3 construct: a human liver microsome solution containing three CYP-specific substrates; from tissue; host or cells: human liver microsomes
Protocol: as §1, §2, §3

[1] = Metabolic stability test (human liver microsome, hepatic intrinsic clearance); type: in vitro ADME; details: human liver microsomes, pH 7.4; human liver microsome 0.2 mg/mL, test compound 0.001 mmol/L, 37° C., 0, 10 and 20 minutes
Protocol: A metabolic reaction was initiated by adding and mixing a test compound solution (final concentration 0.001 mmol/L) and a NADH/NADPH solution (final concentration 1 mmol/L) to a human liver microsome solution (final concentration 100 mmol/L potassium phosphate buffer solution (pH 7.4), 5 mmol/L magnesium chloride, 0.2 mg/ml, human liver microsome). A solution of the internal standard in methanol was prepared and used as a quenching solution.
Specifically, a metabolic reaction was initiated by adding and mixing 2.5 μL of a solution of a test compound in acetonitrile to 222.5 μL of a human liver microsome solution in ice water, followed by preincubation at 37° C. for 1 minute, and then adding 25 μL of a NADH/NADPH solution thereto.
The mixture was centrifuged (6130 g, 4° C., 10 minutes) and the supernatant was used as a sample for LC-MS/MS.
Peak area ratio ([peak area of test compound]/[peak area of internal standard]) was calculated for the test compound and the internal standard.
The residual ratio of the test compound was calculated from ([Ratio of peak areas at each reaction time]/[Ratio of peak areas at 0 minute reaction time]).

T2 sequence (P31652 whole entry): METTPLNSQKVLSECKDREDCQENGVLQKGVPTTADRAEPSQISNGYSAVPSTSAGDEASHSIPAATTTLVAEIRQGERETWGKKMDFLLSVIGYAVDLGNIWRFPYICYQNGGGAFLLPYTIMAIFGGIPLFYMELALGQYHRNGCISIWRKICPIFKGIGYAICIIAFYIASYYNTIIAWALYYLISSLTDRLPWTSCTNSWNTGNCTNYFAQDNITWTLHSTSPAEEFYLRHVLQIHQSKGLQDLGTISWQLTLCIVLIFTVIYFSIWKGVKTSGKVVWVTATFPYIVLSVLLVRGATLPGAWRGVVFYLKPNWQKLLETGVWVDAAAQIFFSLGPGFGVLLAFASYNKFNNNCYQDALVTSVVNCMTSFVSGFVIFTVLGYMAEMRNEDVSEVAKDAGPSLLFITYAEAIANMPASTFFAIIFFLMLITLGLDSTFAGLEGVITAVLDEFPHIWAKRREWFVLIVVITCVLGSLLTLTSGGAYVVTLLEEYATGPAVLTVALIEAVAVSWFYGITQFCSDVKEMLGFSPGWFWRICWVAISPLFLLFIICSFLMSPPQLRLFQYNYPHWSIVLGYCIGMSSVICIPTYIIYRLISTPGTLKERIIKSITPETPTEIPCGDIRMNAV
T3 sequence (P11712 whole entry): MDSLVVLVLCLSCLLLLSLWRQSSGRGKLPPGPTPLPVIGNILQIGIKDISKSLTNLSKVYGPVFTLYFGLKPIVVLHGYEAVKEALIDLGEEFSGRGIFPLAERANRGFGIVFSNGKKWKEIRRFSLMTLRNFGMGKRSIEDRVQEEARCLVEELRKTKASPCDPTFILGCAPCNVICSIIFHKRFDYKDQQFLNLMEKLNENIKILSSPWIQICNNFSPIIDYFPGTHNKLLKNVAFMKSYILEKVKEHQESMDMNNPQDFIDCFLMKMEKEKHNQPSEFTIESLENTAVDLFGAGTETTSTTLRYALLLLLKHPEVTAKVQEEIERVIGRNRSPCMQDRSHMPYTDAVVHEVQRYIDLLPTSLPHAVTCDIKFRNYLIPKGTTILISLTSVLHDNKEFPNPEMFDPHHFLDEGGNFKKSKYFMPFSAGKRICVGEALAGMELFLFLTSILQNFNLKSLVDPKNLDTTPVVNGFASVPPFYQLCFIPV
T1 sequence (P10635 whole entry): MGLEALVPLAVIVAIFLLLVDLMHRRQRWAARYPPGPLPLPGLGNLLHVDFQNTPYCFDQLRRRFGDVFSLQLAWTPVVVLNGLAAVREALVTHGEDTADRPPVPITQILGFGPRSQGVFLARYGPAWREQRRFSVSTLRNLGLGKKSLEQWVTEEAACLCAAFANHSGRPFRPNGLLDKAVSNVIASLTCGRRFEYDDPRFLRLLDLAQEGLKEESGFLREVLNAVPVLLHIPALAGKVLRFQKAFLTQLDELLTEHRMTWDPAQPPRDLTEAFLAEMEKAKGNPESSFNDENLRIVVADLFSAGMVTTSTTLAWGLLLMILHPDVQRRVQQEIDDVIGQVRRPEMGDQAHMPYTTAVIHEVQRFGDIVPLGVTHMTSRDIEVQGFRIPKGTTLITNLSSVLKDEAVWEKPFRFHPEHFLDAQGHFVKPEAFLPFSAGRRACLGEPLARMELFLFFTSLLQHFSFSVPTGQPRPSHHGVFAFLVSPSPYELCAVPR

Compound	inhibition at 10 min, 0.01 mmol/L (CYP2D6) [%]	IC50 (serotonin (5-HT) uptake) [nM]	inhibition at 10 min, 0.01 mmol/L (CYP2C9) [%]	microsomal CLint at 0.001 mmol/L [1] [µL/min/mg]
COc1cc(N2CC3(CCC3)N[C@H]3CCCC[C@@H]32)ccc1OCCO [Example 11]	14.2	39.6	7.5	< 50
CC1(C)CN(c2ccc(OCCO)c(Cl)c2)[C@H]2CCCC[C@H]2N1 [Example 44, 2-(2-chloro-4-((4aR,8aS)-3,3-dimethyloctahydroquinoxalin-1(2H)-yl)phenoxy)ethan-1-ol 1/2fumarate]	10.2	15.3	-11.4	< 50
Cc1cc(N2CC(C)(C)N[C@@H]3CCCC[C@@H]32)ccc1OC(F)(F)CO [Example 48]	-7.8	57.4	-0.7	< 50
CC1(C)CN(c2ccc(OCCO)c3occc23)[C@@H]2CCCC[C@@H]2N1 [Example 50]	41.8	7.7	-7.6	< 50
Cc1c(N2CC(C)(C)N[C@@H]3CCCC[C@@H]32)ccc(OC(F)(F)CO)c1F [Example 57]	14.9	30.3	9.3	58
CC1(C)CN(c2ccc(OC(F)(F)CO)cc2F)[C@H]2CCCC[C@H]2N1 [Example 61, 2-(4-((4aR,8aS)-3,3-dimethyloctahydroquinoxalin-1(2H)-yl)-3-fluorophenoxy)-2,2-difluoroethan-1-ol 1/2fumarate]	16.1	9	6.8	< 50
CC1(C)CN(c2ccc(OCCO)c(Br)c2F)[C@H]2CCCC[C@H]2N1 [Example 63]	19.2	5.1	1.1	84
CC1(C)CN(c2ccc(OCCO)cc2Cl)[C@H]2CCCC[C@H]2N1 [Example 64, 2-(3-chloro-4-((4aR,8aS)-3,3-dimethyloctahydroquinoxalin-1(2H)-yl)phenoxy)ethan-1-ol 1/2fumarate]	21.6	8.8	10.2	< 50
CC1(C)CN(c2cc(F)c(OC(F)(F)CO)cc2F)[C@H]2CCCC[C@H]2N1 [Example 71]	28.8	57	0.6	< 50

Other lines, results leading:

inhibition at 10 min, 0.01 mmol/L (CYP2D6) [%]	IC50 (serotonin (5-HT) uptake) [nM]	inhibition at 10 min, 0.01 mmol/L (CYP2C9) [%]	microsomal CLint at 0.001 mmol/L [1] [µL/min/mg]	Compound
15	6.1	-6.4	< 50	OCCOc1c(F)cc(N2CC3(CCC3)N[C@H]3CCCC[C@@H]32)cc1Cl [Example 6]
20.1	10	8.1	< 50	OCCOc1ccc(N2CC3(CCC3)N[C@H]3CCCC[C@@H]32)cc1 [Example 8]
20.5	5.8	13.6	< 50	Cc1cc(N2CC3(CCC3)N[C@H]3CCCC[C@@H]32)cc(F)c1OCCO [Example 14]
5.9	62.7	5.8	< 50	C[C@@H]1CN(c2ccc(OC(F)(F)CO)c(Cl)c2)[C@H]2CCCC[C@@H]2N1 [Example 19]
17	17	-8.3	< 50	CC1(C)CN(c2ccc(OCCO)c3occc23)[C@H]2CCCC[C@H]2N1 [Example 51]
23	55	9.2	< 50	CC1(C)CN(c2ccc(OCCO)c(F)c2)[C@H]2CCCC[C@H]2N1 [Example 52]
16.1	22.9	2.8	< 50	Cc1cc(N2CC(C)(C)N[C@@H]3CCCC[C@@H]32)cc(F)c1OC(F)(F)CO [Example 58]
17.8	8.6	4.6	< 50	CC1(C)CN(c2cc(Br)c(OCCO)cc2F)[C@H]2CCCC[C@H]2N1 [Example 62]
45.6	5.7	14.8	< 50	Cc1c(OC(F)(F)CO)ccc(N2CC(C)(C)N[C@H]3CCCC[C@H]32)c1F [Example 69, 2-(4-((4aS,8aR)-3,3-dimethyloctahydroquinoxalin-1(2H)-yl)-3-fluoro-2-methylphenoxy)-2,2-difluoroethan-1-ol 1/2fumarate]
28.4	7	15.8	< 50	Cc1c(OC(F)(F)CO)ccc(N2CC(C)(C)N[C@@H]3CCCC[C@@H]32)c1F [Example 70]
17.9	55.4	1.7	< 50	CC1(C)CN(c2cc(F)c(OCCO)cc2F)[C@H]2CCCC[C@H]2N1 [Example 72]
